Source: ChEMBL document CHEMBL1201862, “PubChem BioAssay data set” (2004)
Calls of active or inactive are those of the source.

How the values were obtained:
Large T antigen = Large T antigen (Simian virus 40, UniProt P03070); assay type: functional, Betapolyomavirus macacae;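 note: Confirmatory-stage PubChem screen for compounds that inhibit SV40 T antigen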
[1] = mitochondrial function rescue without frataxin homolog – Friedreich's ataxia, plus single-dose screen, dose response (AID 1465); assay type: functional;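 note: yeast depleted of Yfh1p frataxin homolog grown on glycerol needing respiration; WST-1 tetrazolium dye reduction as measure of cellular dehydrogenase metabolic activity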
[2] = luciferase reporter signal suppression in cells – H4 neuroglioma cells, luminescence, dose response (AID 1990); assay type: functional, cell-based
[3] = target: T1, Luciferin 4-monooxygenase (Photinus pyralis, UniProt P08659); test: Counter Screen for Luciferase-based Assay Positives. [Related pubchem assays: 620, 618, 411 ]
T1 sequence (P08659 whole entry): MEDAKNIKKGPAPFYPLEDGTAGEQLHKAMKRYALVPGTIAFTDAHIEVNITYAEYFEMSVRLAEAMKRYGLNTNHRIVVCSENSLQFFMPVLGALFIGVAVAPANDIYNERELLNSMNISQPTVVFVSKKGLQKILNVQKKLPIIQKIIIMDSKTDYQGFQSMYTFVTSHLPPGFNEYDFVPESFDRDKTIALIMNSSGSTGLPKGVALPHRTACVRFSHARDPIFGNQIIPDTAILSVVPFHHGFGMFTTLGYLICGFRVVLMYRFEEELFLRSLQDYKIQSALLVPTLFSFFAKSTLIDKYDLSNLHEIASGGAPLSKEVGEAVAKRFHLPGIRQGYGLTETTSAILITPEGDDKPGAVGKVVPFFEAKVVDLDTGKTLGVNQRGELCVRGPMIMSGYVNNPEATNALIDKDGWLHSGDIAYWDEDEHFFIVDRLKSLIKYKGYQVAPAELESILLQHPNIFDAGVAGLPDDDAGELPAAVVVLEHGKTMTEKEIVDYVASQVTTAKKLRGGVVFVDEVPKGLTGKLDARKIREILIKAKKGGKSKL

[4] = Luminescence Cell-Based Dose Response HTS to Identify Inhibitors of 5'UTR Stem-Loop Driven Prion Protein mRNA Translation in H4 Neuroglioblastoma Cells. [Related pubchem assays: 1827 (Project Summary), 1813 (Primary HTS)]; assay type: functional
[5] = target: T2, Heat shock factor protein 1 (Mus musculus, UniProt P38532); test: decrease of HSF1-responsive luciferase luminescence – cell-based, NIH3T3, dose retest, confirmation (AID 2382); assay type: functional;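 note: NIH3T3 fibroblasts with HSF1-driven luciferase reporter stressed by proteasome inhibitor MG132; luminescence from HSF1-driven luciferase expression after 8 hours of MG132 stress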
T2 sequence (P38532 whole entry): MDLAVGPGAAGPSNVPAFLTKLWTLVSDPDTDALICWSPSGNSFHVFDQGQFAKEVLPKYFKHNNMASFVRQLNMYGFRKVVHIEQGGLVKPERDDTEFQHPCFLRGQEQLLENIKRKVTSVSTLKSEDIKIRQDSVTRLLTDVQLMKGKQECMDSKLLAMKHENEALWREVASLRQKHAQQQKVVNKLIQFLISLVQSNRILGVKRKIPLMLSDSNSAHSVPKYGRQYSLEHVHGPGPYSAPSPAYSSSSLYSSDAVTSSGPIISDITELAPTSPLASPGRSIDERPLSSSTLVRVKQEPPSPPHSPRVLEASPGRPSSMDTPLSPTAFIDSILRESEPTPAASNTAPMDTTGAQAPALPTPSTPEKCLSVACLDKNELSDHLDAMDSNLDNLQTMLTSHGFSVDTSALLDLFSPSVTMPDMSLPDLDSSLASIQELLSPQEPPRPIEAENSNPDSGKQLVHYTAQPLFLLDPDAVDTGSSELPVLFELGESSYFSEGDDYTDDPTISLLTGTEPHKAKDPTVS

[6] = alpha-synuclein stem-loop luciferase translation blockers – H4 neuroglioma cells, luminescence, confirmation (AID 1988); assay type: functional, cell-based
[7] = target: T1, Luciferin 4-monooxygenase; test: inhibition of purified Photinus pyralis luciferase – biochemical, luminescence, dose response (AID 1891)
[8] = Luminescence Cell-Based Dose Confirmation HTS to Identify Inhibitors of Platelet Dense Granule Release. [Related pubchem assays: 1663 (Primary HTS), 1678 (Summary of Project)]; assay type: functional
[9] = Luminescence-based counterscreen assay for KLF5 inhibitors: dose response cell-based high throughput screening assay to identify cytotoxic compounds using the IEC-6 intestinal epithelial cell line. [Related pubchem assays: 1700 (Primary screen.), 1834 (Confirmation screen.), 1858 (Summary AID.), 1905 (Counterscreen.)]; assay type: functional
HT-1080 = test: HT1080 cell viability loss – fluorescence readout (AID 620); assay type: functional, cell-based; conditions: Homo sapiens
[10] = Fluorescence Cell-Based Dose Response to Identify Inhibitors of Thrombin Receptor-Activating Peptide SFLLRN-Mediated P-Selectin Induction on Platelets. [Related pubchem assays: 1663 (Primary HTS), 1889 (retest at dose ), 1891 (counterscreen), 1678 (Project Summary)]; assay type: functional
[11] = HEK-293T viability loss after treatment – luminescence, T-cell screen hits, cytotoxicity control for TCR NF-kB inhibitor project, dose response (AID 489026); assay type: functional, cell-based;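 note: cells exposed to compound about 14 hours before the viability readout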
[12] = blockers of HIV-1 envelope-mediated cell-cell fusion – cherry-pick, dose response (AID 652057); assay type: functional, cell-based
[13] = viability loss in CEM21 cells – cell-based, CellTiter-Glo luminescence, cherry-picked, cytotoxicity control for viral fusion inhibitor project, dose response (AID 652042); assay type: functional;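 note: potency for signal decrease meaning cytotoxicity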
[14] = blockers of HIV-1 ZM109 envelope-driven cell-cell fusion – HeLa effector, CEM target cells, luciferase, cherry-pick, dose response (AID 652058); assay type: functional, cell-based;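 note: luciferase signal from HIV-1 Env mediated cell-cell fusion of effector and target cells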
[15] = off-target signal loss in HeLa-CEM21 co-culture – HeLa F-luc CTL cells, cherry-picked, counter-screen for HIV-1 Env fusion inhibitor project, dose response (AID 652040); assay type: functional, cell-based;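 note: potency for signal decrease marking cytotoxic or nonspecific inhibition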
[16] = HIV-1 AD8 envelope cell-cell fusion blockers – cherry-pick, dose response (AID 652062); assay type: functional, cell-based;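 note: luciferase signal from cell-cell fusion driven by HIV-1 clade B AD8 Env; potency is for inhibitors of fusion seen as a drop in luminescence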
Leucine aminopeptidase = Leucine aminopeptidase (Plasmodium falciparum 3D7, UniProt Q8IL11); test: P. falciparum M17LAP inhibitors, primary screen, biochemical, fluorogenic H-Leu-NHMec substrate, 1536-well (AID 1619); assay type: functional
Leucine aminopeptidase, sequence (Q8IL11 whole entry): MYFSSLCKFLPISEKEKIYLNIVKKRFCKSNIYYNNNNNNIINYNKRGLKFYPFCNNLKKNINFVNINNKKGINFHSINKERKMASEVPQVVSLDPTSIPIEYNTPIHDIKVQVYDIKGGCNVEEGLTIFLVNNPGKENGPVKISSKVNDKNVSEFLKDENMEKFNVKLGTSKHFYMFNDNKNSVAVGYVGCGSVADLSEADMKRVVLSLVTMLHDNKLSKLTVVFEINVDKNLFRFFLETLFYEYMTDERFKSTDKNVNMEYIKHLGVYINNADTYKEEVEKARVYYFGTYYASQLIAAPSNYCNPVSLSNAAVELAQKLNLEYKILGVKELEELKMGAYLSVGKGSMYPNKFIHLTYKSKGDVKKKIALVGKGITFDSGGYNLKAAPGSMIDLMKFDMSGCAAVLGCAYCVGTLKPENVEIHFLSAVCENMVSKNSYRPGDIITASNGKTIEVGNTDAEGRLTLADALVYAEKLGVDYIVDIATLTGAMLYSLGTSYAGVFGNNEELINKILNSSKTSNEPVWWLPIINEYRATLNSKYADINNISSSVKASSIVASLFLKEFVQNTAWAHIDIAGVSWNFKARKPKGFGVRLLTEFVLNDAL

[17] = viability of uninfected HEp-2 cells – cell-based, HTS, cytotoxicity control for RSV inhibitor project, dose response (AID 2410); assay type: functional; conditions: human respiratory syncytial virus
cells [18] = test: cells
[19] = Luminescence Cell-Based Dose Confirmation HTS to Identify Activators of 5'UTR Stem-Loop Driven Alpha-Synuclein mRNA Translation in H4 Neuroglioblastoma Cells. [Related pubchem assays: 1829 (Project Summary), 1814 (Primary HTS)]; assay type: functional
[20] = Luminescence Cell-Based Dose Response HTS to Identify Activators of Luciferase Translation or Activity in H4 […] Cells. [Related pubchem assays: 1829 (Project Summary), 1814 (Primary HTS)]; assay type: functional
H4 = test: Luminescence Cell-Based Dose Response HTS to Identify Activators of 5'UTR Stem-Loop Driven Prion Protein mRNA Translation in H4 Neuroglioblastoma Cells. [Related pubchem assays: 1829 (Project Summary), 1814 (Primary HTS)]; assay type: functional; conditions: Homo sapiens
[21] = target: T3, Mannose-6-phosphate isomerase (Homo sapiens, UniProt P34949); test: MPI enzyme activity inhibition – biochemical, fluorescence intensity, coupled assay, primary screen (AID 1209)
T3 sequence (P34949 whole entry): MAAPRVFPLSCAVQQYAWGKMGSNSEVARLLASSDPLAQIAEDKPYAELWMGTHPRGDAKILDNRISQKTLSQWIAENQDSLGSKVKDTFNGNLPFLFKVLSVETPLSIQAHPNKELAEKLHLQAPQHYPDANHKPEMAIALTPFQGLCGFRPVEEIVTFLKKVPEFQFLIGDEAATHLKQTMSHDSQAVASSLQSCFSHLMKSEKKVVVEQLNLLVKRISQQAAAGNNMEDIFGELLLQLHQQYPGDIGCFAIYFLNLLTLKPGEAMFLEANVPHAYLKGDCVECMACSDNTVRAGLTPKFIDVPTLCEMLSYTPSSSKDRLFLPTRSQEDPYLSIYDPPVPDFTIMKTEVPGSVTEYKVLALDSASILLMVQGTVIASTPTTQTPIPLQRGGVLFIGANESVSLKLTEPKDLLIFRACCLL

Estrogen receptor = target: T4, Estrogen receptor (Homo sapiens, UniProt P03372); test: ERα coactivator recruitment enhancers – biochemical, TR-FRET, ERα LBD, dose response (AID 737)
T4 sequence (P03372 whole entry): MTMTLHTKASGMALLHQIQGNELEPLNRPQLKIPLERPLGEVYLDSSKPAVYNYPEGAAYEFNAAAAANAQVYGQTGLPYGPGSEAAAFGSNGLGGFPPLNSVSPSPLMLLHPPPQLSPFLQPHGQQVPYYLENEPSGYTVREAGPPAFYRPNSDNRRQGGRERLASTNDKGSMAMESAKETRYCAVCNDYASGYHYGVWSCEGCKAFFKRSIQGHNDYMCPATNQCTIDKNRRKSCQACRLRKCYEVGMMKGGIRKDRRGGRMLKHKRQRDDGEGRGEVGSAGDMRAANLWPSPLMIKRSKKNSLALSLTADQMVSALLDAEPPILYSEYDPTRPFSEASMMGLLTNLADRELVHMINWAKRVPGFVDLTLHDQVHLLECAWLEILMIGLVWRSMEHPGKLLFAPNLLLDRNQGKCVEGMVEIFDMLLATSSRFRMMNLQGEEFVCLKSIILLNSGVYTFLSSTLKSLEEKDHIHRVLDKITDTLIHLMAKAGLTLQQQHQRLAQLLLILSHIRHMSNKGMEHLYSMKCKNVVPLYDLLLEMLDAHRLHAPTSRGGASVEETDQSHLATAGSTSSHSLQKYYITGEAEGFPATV

[22] = tested on: Streptococcus sp. 'group A'; test: Streptococcus pyogenes SK(-)GAS viability under kanamycin – luminescence, BacTiterGlo, confirmation, counter-screen for streptokinase expression inhibitor project, dose response (AID 1900); assay type: functional, organism-based
cells [23] = assay type: functional, cell-based
[24] = Trypanosoma cruzi growth suppression in host cells – NIH3T3 host cells, beta-gal luminescence, confirmation (AID 2044); assay type: functional, cell-based;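 note: intracellular parasites grown in NIH/3T3 mouse fibroblasts as host cells; luminescent beta-galactosidase reporter signal from transgenic T. cruzi replicating inside host cells; inhibitors lower the luminescence signal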
cells [25] = assay type: functional, cell-based; remark: listed apart in the source
[26] = NIH3T3 cell viability loss – ATP luminescence, mouse fibroblasts, counter-screen, dose response (AID 2010); assay type: functional, cell-based;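 note: cells exposed to compound for about 90 hours before reading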
Streptococcus = test: GAS UMAA2166 growth inhibition – luminescence, BacTiterGlo, counter-screen for streptokinase expression inhibitor project, dose response (AID 1915); assay type: functional, organism-based;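 note: potency for reduction of bacterial viability or growth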
[27] = target: T5, Microphthalmia-associated transcription factor (Homo sapiens, UniProt O75030); test: reducers of TRPM1 reporter luminescence, concentration series – cell-based, SK-MEL-5, cherry-picked, set 3, MITF inhibitor project, dose response (AID 493073); assay type: functional;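 note: SK-MEL-5 melanoma cells with luciferase driven by the MITF target TRPM1 promoter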
T5 sequence (O75030 whole entry): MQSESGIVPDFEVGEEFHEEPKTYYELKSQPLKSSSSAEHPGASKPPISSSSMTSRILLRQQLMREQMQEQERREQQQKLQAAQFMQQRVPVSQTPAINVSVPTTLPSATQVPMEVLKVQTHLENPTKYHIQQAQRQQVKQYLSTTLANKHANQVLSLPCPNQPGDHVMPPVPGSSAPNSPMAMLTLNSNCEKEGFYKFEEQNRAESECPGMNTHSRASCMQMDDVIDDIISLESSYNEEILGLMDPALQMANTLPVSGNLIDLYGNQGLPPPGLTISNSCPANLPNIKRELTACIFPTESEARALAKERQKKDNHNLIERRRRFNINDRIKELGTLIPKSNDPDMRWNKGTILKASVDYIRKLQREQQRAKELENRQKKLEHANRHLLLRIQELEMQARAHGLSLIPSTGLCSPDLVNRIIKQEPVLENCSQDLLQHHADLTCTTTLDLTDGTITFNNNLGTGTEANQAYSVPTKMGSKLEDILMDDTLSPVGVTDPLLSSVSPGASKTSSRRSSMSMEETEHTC

INS1 = test: INS-1E survival protection against cytokine death – cell-based, luminescence, retest, dose response (AID 449756); assay type: functional; conditions: Rattus norvegicus;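 note: cell death triggered by IL-1 beta plus TNF-alpha plus IFN-gamma mixture; protective hits raise ATP signal compared with cytokine alone wells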
[28] = target: Eukaryotic translation initiation factor 4H (Homo sapiens, UniProt Q15056); test: eIF4H binding inhibition – biochemical, uHTS, fluorescence polarization, translation initiation inhibitor project, primary screen (AID 2012)
[29] = target: Polyadenylate-binding protein 1 (Homo sapiens, UniProt P11940); test: blockers of PABP interaction with poly(A) – biochemical, fluorescence polarization, […] (AID 2014)
Polyadenylate-binding protein 1, sequence (P11940 whole entry): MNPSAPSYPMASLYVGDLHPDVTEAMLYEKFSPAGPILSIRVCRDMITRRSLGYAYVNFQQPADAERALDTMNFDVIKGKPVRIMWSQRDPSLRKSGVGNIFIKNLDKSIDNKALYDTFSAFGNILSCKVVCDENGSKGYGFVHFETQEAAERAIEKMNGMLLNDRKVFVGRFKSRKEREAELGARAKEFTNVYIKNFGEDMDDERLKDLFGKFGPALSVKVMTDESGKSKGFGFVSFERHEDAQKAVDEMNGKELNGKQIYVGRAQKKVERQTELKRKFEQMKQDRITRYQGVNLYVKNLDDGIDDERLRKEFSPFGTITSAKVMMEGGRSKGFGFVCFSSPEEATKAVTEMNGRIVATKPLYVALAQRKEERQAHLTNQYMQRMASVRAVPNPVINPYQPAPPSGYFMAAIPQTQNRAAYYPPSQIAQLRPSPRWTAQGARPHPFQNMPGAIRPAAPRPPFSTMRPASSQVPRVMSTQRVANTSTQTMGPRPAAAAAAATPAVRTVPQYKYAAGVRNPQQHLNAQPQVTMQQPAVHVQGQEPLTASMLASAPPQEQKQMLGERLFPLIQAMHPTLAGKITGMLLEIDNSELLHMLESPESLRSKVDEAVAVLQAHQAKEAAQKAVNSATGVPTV

Large T antigen, sequence (P03070 whole entry): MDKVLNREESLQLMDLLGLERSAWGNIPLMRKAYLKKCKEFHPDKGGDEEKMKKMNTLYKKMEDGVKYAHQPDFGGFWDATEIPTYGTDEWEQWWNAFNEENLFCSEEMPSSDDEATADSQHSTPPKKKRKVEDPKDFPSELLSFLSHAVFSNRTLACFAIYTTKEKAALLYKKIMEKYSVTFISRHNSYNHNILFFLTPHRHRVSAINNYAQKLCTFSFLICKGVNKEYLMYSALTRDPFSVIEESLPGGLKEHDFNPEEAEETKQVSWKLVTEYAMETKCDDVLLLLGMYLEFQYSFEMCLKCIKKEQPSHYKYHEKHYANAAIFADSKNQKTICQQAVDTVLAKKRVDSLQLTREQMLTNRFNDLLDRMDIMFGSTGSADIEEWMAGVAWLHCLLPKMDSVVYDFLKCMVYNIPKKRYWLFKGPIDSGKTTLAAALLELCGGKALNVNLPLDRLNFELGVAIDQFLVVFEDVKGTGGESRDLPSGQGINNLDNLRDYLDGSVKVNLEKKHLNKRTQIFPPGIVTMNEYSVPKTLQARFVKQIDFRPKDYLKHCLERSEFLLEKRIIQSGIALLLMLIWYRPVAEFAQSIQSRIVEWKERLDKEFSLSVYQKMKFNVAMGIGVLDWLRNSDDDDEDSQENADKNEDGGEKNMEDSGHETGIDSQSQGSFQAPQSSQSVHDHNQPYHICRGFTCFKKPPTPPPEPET

Structure (SMILES): N#C/C(=C\c1ccc(N2CCOCC2)o1)C(=O)Nc1ccc(O)cc1
- IC50 (Large T antigen): 15.2 µM (active)
- EC50 [1]: > 100 µM (active)

Structure (SMILES): COC(=O)c1nn(-c2ccc3c(c2)CCN3C(C)=O)cc1O
- EC50 [2]: 2.45 µM (inconclusive)
- EC50 [3]: > 100 µM (not active)
- EC50 [4]: 0.29 µM (active)
- EC50 [5]: 0.665 µM (active)
- EC50 [6]: 1.78 µM (active)
- EC50 [7]: 15.8 µM (active)
- EC50 [8]: 1.06 µM (active)
- IC50 [9]: > 39.8 µM (not active)
- EC50 (HT-1080): > 50 µM (not active)
- EC50 [10]: < 100 µM (not active)
- IC50 [11]: > 80 µM (inactive)
- AC50 [12]: 5.72 µM (active)
- AC50 [13]: 45.5 µM (active)
- AC50 [14]: 18.5 µM (active)
- AC50 [15]: 3.07 µM (active)
- AC50 [16]: 6.43 µM (active)

Structure (SMILES): COc1ccc2oc(C)c(C(=O)NN)c2c1
- IC50 (Leucine aminopeptidase): 26.6 µM (active)

Structure (SMILES): COc1cccc(C(=O)Nc2cc(NC(=O)c3cccs3)ccc2C)c1OC
- CC50 [17]: 38.2 µM (active)
- IC50 (cells [18]): 48.3 µM (active)

Structure (SMILES): Nc1[nH]ncc1-c1ccc(Cl)cc1
- IC50 (Leucine aminopeptidase): 38.2 µM (active)

Structure (SMILES): Cc1cc(N=C(S)Nc2ccc(C)c(Cl)c2)[nH]n1
- EC50 [19]: 8.11 µM (active)
- EC50 [20]: 76.2 µM (active)
- EC50 (H4): 14.8 µM (active)
- IC50 [21]: > 50 µM (not active)

Structure (SMILES): Cc1nn(-c2ccccc2)c2sc(C(=O)c3c(N)n(C)c(=O)n(C)c3=O)cc12
- EC50 (Estrogen receptor): 12.6 µM (active)

Structure (SMILES): CCCOc1ccc(-c2nnc(-c3cccs3)o2)cc1
- EC50 [3]: 7.29 µM (active)
- EC50 (HT-1080): > 50 µM (not active)

Structure (SMILES): COc1ccc(C(=O)N/N=C/c2cc(Br)ccc2O)cc1OC
- EC50 [22]: 0.959 µM (active)
- EC50 (cells [23]): 11.3 µM (active)
- IC50 [9]: 12.2 µM (not active)
- EC50 [24]: 3.76 µM (active)
- EC50 (cells [25]): > 350 µM (not active)
- EC50 [26]: > 60 µM (not active)
- EC50 (Streptococcus): 5.78 µM (active)
- AC50 [27]: 4.76 µM (active)
- AC50 (INS1): 1.97 µM (active)

Structure (SMILES): CCn1/c(=N/C(=O)c2ccc(N3C(=O)CCC3=O)cc2)sc2c(OC)ccc(OC)c21
- IC50 [28]: 14.7 µM (active)
- EC50 (Estrogen receptor): 7.94 µM (active)
- IC50 [29]: > 100 µM (inactive)
